Experimental data reported in BindingDB's records for doi:10.1016/j.bmc.2012.12.025 (Astellas Pharma, 2013).
pIC50: −log10 of the molar value.

Tests used:
[1] = biological target: Diamine oxidase AOC1 (Rattus norvegicus); test: Inhibition of rat liver DAO using putrescine as substrate after 1 hr by fluorometric assay
[2] = biological target: Diamine oxidase AOC1 (Homo sapiens); test: Inhibition of human DAO expressed in CHO cells using putrescine as substrate after 1 hr by fluorometric assay

pIC50 [1]: 4.12 | pIC50 [2]: < 4.00
SMILES: CC(=O)Nc1nc(CCc2ccc(N=C(N)N)cc2)cs1
